Source: PMC10829846 (Emerging Microbes & Infections, 2023)

B1: recombinant NDM-1 (Klebsiella pneumoniae) (protein)
chain: MHHHHHHMPGEIRPTIGQQMETGDQRFGDLVFRQLAPNVWQHTSYLDMPGFGAVASNGLIVRDGGRVLVVDTAWTDDQTAQILNWIKQEINLPVALAVVTHAHQDKMGGMDALHAAGIATYANALSNQLAPQEGMVAAQHSLTFAANGWVEPATAPNFGPLKVFYPGPGHTSDNITVGIDGTDIAFGGCLIKDSKAKSLGNLGDADTEHYAASARAFGAAFPKASMIVMSHSAPDSRAAITHTARMADKLR

Experiments:
NDM-1 [1] = biological target: T1, NDM-1 (Klebsiella pneumoniae, UniProt C7C422); experiment: Inhibition of NDM-1 hydrolytic activity, enzymatic assay with meropenem; format: biochemical; conditions: for Restoration of NDM-1 activity by zinc supplementation: 1-fold or 10-fold concentration of Zn^2+; for Inhibitory mode: Lineweaver-Burk plot
[2] = system: NDM-1 positive bacteria EC1864; experiment: Checkerboard assay with meropenem; format: cell-based, Escherichia coli; conditions: meropenem alone […]
EC1864 = experiment: Sepsis model; format: in vivo, ICR mice; conditions: compound oral + meropenem i.v., all 10 mg/kg once daily
NDM-1 [3] = biological target: T1, NDM-1; conditions: cited from earlier work
[4] = substrate: C[C@@H](O)[C@H]1C(=O)N2C(C(=O)O)=C(S[C@@H]3CN[C@H](C(=O)N(C)C)C3)[C@H](C)[C@H]12; experiment: purified protein, by the assay type; format: biochemical; conditions: other: meropenem as substrate of recombinant NDM-1; pH 7.5

| Molecule | Restoration of NDM-1 activity by zinc supplementation (NDM-1 [1]) | Inhibitory mode (NDM-1 [1]) | MIC value of meropenem with sub-MIC concentration of the compound [2] [µg/mL] | Survival rate of sepsis mice, combination therapy with meropenem (EC1864) | Concentration that completely inhibited NDM-1 activity (NDM-1 [3]) [µM] | Km [4] [µM] | kcat [4] [s⁻¹] |
| --- | --- | --- | --- | --- | --- | --- | --- |
| O=C(O)CN(CCN(CC(=O)O)CC(=O)O)CC(=O)O [EDTA] | partially or fully restored | non-competitive inhibition |  |  |  |  |  |
| O=[N+]([O-])c1ccc(O)c2ncccc12 [nitroxoline, 5-nitro-8-hydroxyquinoline] | partially or fully restored | non-competitive inhibition | 8 | did not exhibit a protective effect | 30 |  |  |
| B1 |  |  |  |  |  | 54.72 | 11.71 |
